{
  "source": "paper PMC4919555",
  "about": "(EBioMedicine, 2016)",
  "key": {"[1]": {"tested_on": "M. tuberculosis wild-type, katG-null and katG-overexpressing strains", "assay_type": "cell-based"}, "[2]": {"tested_on": "M. tuberculosis clinical isolates", "assay_type": "cell-based"}},
  "note": "Read-outs that look alike come from different tables or passages of the source.",
  "data": [
    {"molecule": "Cc1csc([C@](C)(O)c2nnc(Nc3ccn(Cc4csc(C)n4)n3)s2)n1", "note": "[GSK693, (S)-1-(4-methylthiazol-2-yl)-1-(5-((1-((2-methylthiazol-4-yl)methyl)-1H-pyrazol-3-yl)amino)-1,3,4-thiadiazol-2-yl)ethanol]", "values": [
      {"measurement": "Killing of katG-null mutant strain", "setting": "[1]", "result": "killed equally well as the wild-type strain"}
    ]},
    {"molecule": "NNC(=O)c1ccncc1", "note": "[INH, isoniazid]", "values": [
      {"measurement": "Ratio (MIC relative to H37Rv)", "setting": "[2]; CI1, − 15 C/T inhA", "result": 6},
      {"measurement": "Ratio (MIC relative to H37Rv)", "setting": "[2]; CI2, − 15 C/T inhA", "result": 3},
      {"measurement": "Ratio (MIC relative to H37Rv)", "setting": "[2]; CI3, − 15 C/T inhA", "result": 3},
      {"measurement": "Response of katG-null mutant", "setting": "[1]", "result": "resistant"},
      {"measurement": "Response of katG-overexpressing strain", "setting": "[1]; 3.6 μM (0.5 μg/ml), 4 days", "result": "more sensitive compared to the wild-type strain"}
    ]}
  ]
}
